Values joined by “and” are separate entries in the source; they are usually repeats but may differ in a detail not shown here. Identical values can stand only once.

In one test the target is T1, ALKBH5 (Homo sapiens, UniProt Q6P6C2).
T1 construct: pNIC28-Bsa4 ALKBH5 (encompassing residues 66-292); made in house; host or cells: E. coli BL21 (DE3) Rosetta T1R
T1 sequence (Q6P6C2 66-292): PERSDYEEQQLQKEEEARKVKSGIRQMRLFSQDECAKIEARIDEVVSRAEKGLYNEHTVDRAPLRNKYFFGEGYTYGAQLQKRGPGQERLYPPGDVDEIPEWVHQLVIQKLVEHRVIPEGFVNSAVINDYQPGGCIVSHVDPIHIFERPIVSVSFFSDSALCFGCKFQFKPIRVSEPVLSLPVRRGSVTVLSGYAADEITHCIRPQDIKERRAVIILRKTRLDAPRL
Nature of the test: MALDI-based inhibition assay for ALKBH5, m6A-ssDNA substrate. The class given is biochemical. As to conditions: read-out: IC50 (ALKBH5). As for the experimental part:
MALDI-based inhibition assays for FTO and ALKBH5
The assay was modified from previously reported method.[5] An 8-mer m6A-ssDNA substrate with the sequence 5’-TCA(m6A)CAGC-3’ (Yale University, W.M. Keck Foundation Biotechnology Resource Laboratory) was used in this inhibition assay. The assay was performed in triplicate for each inhibitor, in a final reaction volume of 25 µL. Reaction […]
µM), L-ascorbate (2 mM), m6A-ssDNA substrate (100 µM), in 50 mM HEPES buffer, pH 7.5, and inhibitor at various concentrations (final DMSO concentration not more than 1% v/v of assay mix). The reaction was incubated at room temperature for 30 min, before 1:1 quenching with 20% v/v formic acid. 1 uL of the diluted assay mixture was then mixed with 1 uL of 3-hydroxpicolinic acid (3-HPA, the MALDI-TOF-MS matrix, Sigma-Aldrich) and spotted onto the MALDI-TOF-MS plate before analysis. The 3-HPA matrix was prepared by mixing 9 parts of 50 mg/mL 3-hydroxpicolinic acid in 50% MeCN/Milli-Q H2O with 1 part […]
The percentage inhibition was estimated based on the relative intensities of the methylated substrate and the demethylated product observed in the mass spectra. For IC50 determination, eight different concentrations of […]
the variation in percentage demethylation at different inhibitor concentrations, using nonlinear regression, with normalized dose-response fit on GraphPad Prism 6.0™. […]
What is called IC50 is the concentration needed to halve the response being measured. With `O=C(O)/C=C/C(=O)NNC(=O)c1cnccc1Cc1ccccc1` [Compound 12], the IC50 was 108 µM.
`O=C(O)/C=C/C(=O)NNC(=O)c1cccnc1` [Compound 21]: the half-maximal inhibitory concentration (IC50) is 168 µM and > 100 µM.
Regarding `O=C(O)C=CC(=O)NNC(=O)c1cc(Cc2ccccc2)ccn1` [Compound 22], the IC50 was 105 µM.
Still for that read-out and setting: then `O=C(O)/C=C/C(=O)NNC(=O)c1ccccn1` [Compound 23], with 157 µM.

A further test addresses T2, ALKBH3 (Homo sapiens, UniProt Q96Q83).
T2 construct: Human ALKBH3 (encompassing residues 1- 286); purchased ProSpec-Tany Technogene Ltd, Israel
T2 sequence (Q96Q83 1-286): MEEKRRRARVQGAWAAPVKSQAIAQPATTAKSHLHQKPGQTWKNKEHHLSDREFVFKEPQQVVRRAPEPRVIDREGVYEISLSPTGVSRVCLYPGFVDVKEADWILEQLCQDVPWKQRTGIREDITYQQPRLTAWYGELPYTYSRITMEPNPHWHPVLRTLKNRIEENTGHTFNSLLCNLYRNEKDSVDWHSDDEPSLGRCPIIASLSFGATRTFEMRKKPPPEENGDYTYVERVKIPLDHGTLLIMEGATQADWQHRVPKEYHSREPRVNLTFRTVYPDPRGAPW
The experiment in a line: Differential scanning fluorimetry (DSF)-based binding assay, ALKBH3. As to conditions: DSF, 100 μM compound, 2 μM protein, 50 μM MnCl2; read-out: Tm shift (ALKBH3). The protocol: Superdex-200 column (GE Healthcare) pre-equilibrated with 20 mM HEPES, pH 7.5, 300 mM NaCl, 10% (v/v) glycerol, 0.5 mM TCEP. […]
Differential scanning fluorimetry (DSF)-based binding assay
DSF-based binding assay was performed using a MiniOpticon™ Real-Time PCR Detection System (Bio-Rad), monitoring protein unfolding using SYPRO orange (Invitrogen) according to the reported method.[16] FAM (492 nm) and ROX (610 nm) filters were used for excitation and emission respectively. Reaction mixes contained 2 μM protein, 50 μM MnCl2, 100 μM compounds, 5x SYPRO orange in a final volume of 50 μl. Reagents were prepared in 50mM HEPES buffer, pH 7.5 except metals, which were dissolved as 100 mM stocks in 20 mM HCl, then further diluted in MilliQ water. Compounds tested were prepared in 100% DMSO and added such that the final concentration of DMSO was not more than 1% v/v of assay […]
mix. Fluorescence readings were taken every 1°C in the range 25-95°C, with the temperature increased linearly by 1°C min -1. The software provided was used to perform global minimum subtraction. The inflection point, representing Tm, was calculated by fitting the Boltzmann equation to the sigmoidal curves obtained; data were processed using GraphPad Prism 6.0™.
The Tm shift caused by the addition of small molecules/ fragments was determined by subtraction of the “reference” Tm (protein incubated with metal and 1% v/v DMSO) from the Tm obtained in the presence of the compound. The assay was performed in triplicate for each inhibitor, with standard deviations typically < 1°C. […]
In general terms: In DSF a fluorescence change marks the thermal transition of the protein.
Take `O=C(O)/C=C/C(=O)NNC(=O)c1cnccc1Cc1ccccc1` [Compound 12]: the ΔTm at 100 µM turned out to be 3.2 °C.
Regarding `O=C(O)/C=C/C(=O)NNC(=O)c1cccnc1` [Compound 21], the ΔTm at 100 µM is 2.5 °C.
On the same count and under the same terms, to `O=C(O)C=CC(=O)NNC(=O)c1cc(Cc2ccccc2)ccn1` [Compound 22] belongs 3.5 °C; to `O=C(O)/C=C/C(=O)NNC(=O)c1ccccn1` [Compound 23], 2 °C.

The target in a further test is T2, ALKBH3. The experiment in a line: MALDI-based inhibition assay for ALKBH3. The conditions noted are these: 8-mer ssDNA substrate. The class given is biochemical. The protocol: MALDI-based inhibition assays for ALKBH3
An 8-mer m1A-ssDNA substrate with the sequence 5’-CAG(m1A)ATTC-3’ (Yale University, W.M. Keck Foundation Biotechnology Resource Laboratory) was used in this inhibition assay. The assay was performed in triplicate for each inhibitor, in a final reaction volume of 25 µL. Reaction consisted of ALKBH3 (2 µM), 2OG (150 µM), (NH4)2Fe(SO4)2·6H2O (150 µM), L-ascorbate (2 mM), […] (100 µM), in 50 mM HEPES buffer, pH 7.5, and inhibitor at various concentrations (final DMSO concentration not more than 1% v/v of assay mix). The reaction was incubated at room temperature for 30 min, before 1:1 quenching with 20% v/v formic acid. 1 uL of the diluted assay mixture was then mixed with 1 uL of 3-hydroxpicolinic acid (3-HPA, the MALDI-TOF-MS matrix, Sigma-Aldrich) and spotted onto the MALDI-TOF-MS plate before analysis. The 3-HPA matrix was prepared by mixing 9 parts of 50 mg/mL 3-hydroxpicolinic acid in 50% MeCN/Milli-Q H2O with 1 part of 50 mg/mL ammonium citrate in Milli-Q H2O.
The percentage inhibition was estimated based on the relative intensities of the methylated substrate and the demethylated product observed in the mass spectra. […]
Reaction consisted of PHD2 (4 µM), 2OG (150 µM),
`O=C(O)/C=C/C(=O)NNC(=O)c1cnccc1Cc1ccccc1` [Compound 12] displayed an IC50 of 66.2 µM.
Same read-out and setting: to `O=C(O)/C=C/C(=O)NNC(=O)c1cccnc1` [Compound 21] belongs 115 µM.
Still for that read-out and setting: then `O=C(O)C=CC(=O)NNC(=O)c1cc(Cc2ccccc2)ccn1` [Compound 22], with 53.5 µM; and `O=C(O)/C=C/C(=O)NNC(=O)c1ccccn1` [Compound 23], with 168 µM.

These data come from paper PMC5424463, “A strategy based on nucleotide specificity leads to a subfamily-selective and cell-active inhibitor of N ^6-methyladenosine demethylase FTO” (Chemical Science, 2014).
